This passage reports IC50 results from patent US12509424B2, “Compound and composition as PDGF receptor kinase inhibitor” (NIPPON SHINYAKU CO., LTD., priority 2019, dated 2025).

Assay [1] concerns the target TEL-PDGFRβ fusion gene transfected cells (Ba/F3). As to the kind of experiment: Suppression of proliferation of TEL-PDGFRβ fusion gene transfected Ba/F3 cells. The settings on record: TEL-PDGFRβ expressing Ba/F3 cells, 72 hours, final concentration 0.1 to 10,000 nM; read-out: PDGFR β/BaF3 proliferation inhibition (IC50). In kind it is cell-based, human. The source says:
2. Preparation of Test Substance
4. Analysis of Measurement Results

For the next assay, the target named is PDGFR-β (Homo sapiens (Human), UniProt P09619). In words: PDGFR-β tyrosine kinase inhibitory action (HTRF KinEASE-TK). In kind it is biochemical. The settings on record: PDGFR-β enzyme 1 ng/μL, 30° C. for 30 minutes; read-out: PDGF-β IC50. The essentials: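 Recombinant PDGFR-β at 1 ng/μL final with TK substrate-3-biotin in a substrate solution containing 0.6 μM ATP; buffer 50 mM HEPES pH 7.0, 5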
On the technique in general: In TR-FRET formats the signal depends on donor and acceptor labels being close together.

The target of assay [2] is TEL-KIT fusion gene transfected cells (Ba/F3). In words: Suppression of proliferation of TEL-KIT fusion gene transfected Ba/F3 cells.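 Note: viable cells quantified via formazan from tetrazolium reduction, inhibition scaled with 0.1% DMSO control as 0% and medium-only blank as 100%, IC50 from two-parameter logistic fit.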 Particulars: read-out: KIT/BaF3 proliferation inhibition (IC50); TEL-KIT expressing Ba/F3 cells, 72 hours, final concentration 0.1 to 10,000 nM.
Text: Fabrication of TEL-PDGFRβ and TEL-KIT Fusion Gene Transfected Cells
Subsequently, the vectors for gene transfection were introduced using a transfection reagent (FuGENE6, Promega Corporation) into packaging cells derived from a human fetal kidney cell line, PLAT-E, in the logarithmic growth phase. Since the culture supernatant of PLAT-E after the gene transfection contained virus particles for gene transfection, it was collected and used as a medium for gene transfection. The medium for gene transfection was added to a plate coated with RetroNectin and incubated, and the virus particles were allowed to adhere to the plate. Thereafter, the mouse pro-B cell line Ba/F3 in the logarithmic growth phase was seeded onto the plate and infected with the virus to fabricate cells that proliferate in a PDGFRβ or KIT dependent manner.
The test substance was prepared with dimethyl sulfoxide (DMSO) to 10 mM and diluted with DMSO so as to reach a concentration of 0.0001 to 3 mM. Furthermore, it was diluted by 100 times with distilled water.
Measurement of Suppression Action Against Proliferation of TEL-PDGFRβ or TEL-KIT Expressing Cells
The day after TEL-PDGFRβ and TEL-KIT expressing cells were seeded onto 96 well plates, the prepared test substance solution was added thereto with a final concentration being 0.1 to 10,000 nM. After 72 hours, the viable cell count was measured using the amount of formazan generated from the reduction of a tetrazolium salt compound by the mitochondrial dehydrogenase of viable cells as an indicator.
Based on the amount of formazan in each condition, the suppression rate against cell proliferation was calculated when the amounts of formazan in the negative control (0.1% DMSO solution) and Blank (medium only) were defined as 0% and 100%, respectively. Subsequently, a nonlinear regression analysis with a two parameter logistic model for the log dose and suppression rate against cell proliferation was carried out using the SAS system (SAS Institute Inc.) to estimate the IC50 value.
For assay [3], the system named is pulmonary arterial smooth muscle cells. In words: Suppression of proliferation of pulmonary arterial smooth muscle cells (PDGF-BB stimulation, BrdU). In kind it is cell-based. Particulars: PASMC, read-out: Human normal PASMC proliferation suppression (PDGF stimulation_IC50). A digest of the protocol: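 Test compound (final 3 to 10,000 nM) was added together with BrdU and PDGF-BB (final 10 ng/mL) to healthy human pulmonary artery smooth muscle cells held a day in 0.1% FBS. Proliferation was read after 1 day as anti-BrdU-detected BrdU incorporation.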

The mark [4] stands for this setting: 24 h, healthy human derived pulmonary arterial smooth muscle cells, human PDGF-BB 10 ng/mL stimulation, BrdU uptake after 1 day, test substance final concentration 3 to 10,000 nM.
The mark [5] stands for this setting: human PDGF-BB 10 ng/mL, BrdU uptake, final concentration 3 to 10,000 nM.

Where two headings read alike, the source gives them in different places.

TEL-PDGFRβ fusion gene transfected cells (Ba/F3), sequence (P09619 33-1106 limits assumed, change not shown): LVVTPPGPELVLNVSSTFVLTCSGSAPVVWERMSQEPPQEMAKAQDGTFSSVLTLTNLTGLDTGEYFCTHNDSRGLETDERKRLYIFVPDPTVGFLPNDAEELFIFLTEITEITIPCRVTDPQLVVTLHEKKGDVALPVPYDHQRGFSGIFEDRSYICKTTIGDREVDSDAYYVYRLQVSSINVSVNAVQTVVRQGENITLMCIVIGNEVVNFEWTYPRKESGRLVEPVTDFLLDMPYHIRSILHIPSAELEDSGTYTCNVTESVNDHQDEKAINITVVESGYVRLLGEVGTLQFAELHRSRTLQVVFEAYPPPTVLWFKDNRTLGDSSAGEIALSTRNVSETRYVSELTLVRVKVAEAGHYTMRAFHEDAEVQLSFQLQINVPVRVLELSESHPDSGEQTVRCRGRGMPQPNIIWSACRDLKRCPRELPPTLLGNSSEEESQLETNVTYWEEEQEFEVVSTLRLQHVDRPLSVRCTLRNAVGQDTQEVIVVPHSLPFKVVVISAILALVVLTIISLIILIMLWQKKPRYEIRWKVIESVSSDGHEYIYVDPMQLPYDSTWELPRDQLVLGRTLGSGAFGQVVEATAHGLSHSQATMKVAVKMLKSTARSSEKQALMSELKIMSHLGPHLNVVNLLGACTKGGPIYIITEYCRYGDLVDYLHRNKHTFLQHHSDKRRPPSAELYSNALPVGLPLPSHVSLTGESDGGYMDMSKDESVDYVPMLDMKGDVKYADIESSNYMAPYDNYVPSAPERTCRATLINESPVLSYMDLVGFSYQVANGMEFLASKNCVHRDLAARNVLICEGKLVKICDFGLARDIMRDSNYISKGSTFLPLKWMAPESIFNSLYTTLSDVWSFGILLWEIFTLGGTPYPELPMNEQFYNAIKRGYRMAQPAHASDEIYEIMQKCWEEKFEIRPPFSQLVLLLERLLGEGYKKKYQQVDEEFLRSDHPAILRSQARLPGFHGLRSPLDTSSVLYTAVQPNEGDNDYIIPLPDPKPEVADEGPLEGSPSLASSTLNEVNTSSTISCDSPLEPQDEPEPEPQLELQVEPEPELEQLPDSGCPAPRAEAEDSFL
PDGFR-β, sequence (P09619 33-1106): as the sequence (P09619 33-1106 limits assumed, change not shown) above
TEL-KIT fusion gene transfected cells (Ba/F3), sequence (P10721 26-976 limits assumed, change not shown): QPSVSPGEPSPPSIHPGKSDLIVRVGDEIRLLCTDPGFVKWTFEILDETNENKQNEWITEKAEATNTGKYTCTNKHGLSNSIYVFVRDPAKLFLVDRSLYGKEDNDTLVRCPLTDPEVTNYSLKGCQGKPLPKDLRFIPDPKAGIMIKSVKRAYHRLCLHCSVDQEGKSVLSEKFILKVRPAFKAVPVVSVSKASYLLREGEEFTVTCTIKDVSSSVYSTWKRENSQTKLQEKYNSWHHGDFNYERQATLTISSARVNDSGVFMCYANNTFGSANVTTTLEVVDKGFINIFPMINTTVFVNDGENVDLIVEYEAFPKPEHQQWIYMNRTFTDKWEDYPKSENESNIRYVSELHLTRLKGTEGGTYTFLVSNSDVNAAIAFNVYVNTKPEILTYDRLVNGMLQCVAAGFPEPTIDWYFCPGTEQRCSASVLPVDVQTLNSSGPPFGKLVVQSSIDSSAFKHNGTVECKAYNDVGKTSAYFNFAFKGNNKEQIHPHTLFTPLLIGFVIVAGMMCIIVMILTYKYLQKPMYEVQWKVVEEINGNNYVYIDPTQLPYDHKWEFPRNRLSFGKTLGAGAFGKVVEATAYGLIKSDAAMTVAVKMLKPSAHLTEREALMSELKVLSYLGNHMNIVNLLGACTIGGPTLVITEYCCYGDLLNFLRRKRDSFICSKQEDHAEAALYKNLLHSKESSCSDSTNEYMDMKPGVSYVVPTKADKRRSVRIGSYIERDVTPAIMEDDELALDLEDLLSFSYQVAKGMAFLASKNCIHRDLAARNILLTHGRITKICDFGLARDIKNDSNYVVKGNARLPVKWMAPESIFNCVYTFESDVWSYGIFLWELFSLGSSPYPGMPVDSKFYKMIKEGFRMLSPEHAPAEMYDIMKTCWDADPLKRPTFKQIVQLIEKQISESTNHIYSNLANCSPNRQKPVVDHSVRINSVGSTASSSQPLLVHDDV

Take `Cc1ccc(C(=O)N[C@H]2CCCC[C@@H]2O)cc1C#Cc1ccc(N)nc1` [Example 65, 3-[(6-aminopyridin-3-yl)ethynyl]-N-[(1S,2S)-2-hydroxycyclohexyl]-4-methylbenzamide]: the IC50 in assay [1] is 0.014 µM; at PDGFR-β, 0.094 µM; in assay [2], 0.27 µM; in assay [3] (setting [4]), 0.06 µM.

For the compound `Cc1ccc(C(=O)N[C@H]2CCCC[C@@H]2O)cc1NC(=O)c1cncc(-c2cccc(C(F)(F)F)c2)c1` [Example 22, N-(5-{[(1S,2S)-2-hydroxycyclohexyl]carbamoyl}-2-methylphenyl)-5-[3-(trifluoromethyl)phenyl]pyridine-3-carboxamide], the IC50 amounted to 0.059 µM in assay [1], 0.014 µM at PDGFR-β, 0.9 µM in assay [2] and 0.1 µM in assay [3] (setting [5]).

Turning to `Cc1ccc(C(=O)N[C@H]2CCCC[C@@H]2O)cc1C#Cc1cncc(-c2ccccn2)c1` [Example 66, 3-[([2,3′-bipyridin]-5′-yl)ethynyl]-N-[(1S,2S)-2-hydroxycyclohexyl]-4-methylbenzamide], the IC50 in assay [1] was found to be 0.0025 µM; at PDGFR-β it was 0.0054 µM; in assay [2] it was 0.1 µM; in assay [3] (setting [4]), 0.03 µM.

As for `Cc1ccc(C(=O)N[C@H]2CCCC[C@@H]2O)cc1NCc1cncc(-c2ccsc2)c1` [Example 103, N-[(1S,2S)-2-hydroxycyclohexyl]-4-methyl-3-({[5-(thiophen-3-yl)pyridin-3-yl]methyl}amino)benzamide], the IC50 in assay [1] turned out to be 0.0041 µM; at PDGFR-β, 0.05 µM; in assay [2], 2.5 µM; in assay [3] (setting [4]), 0.04 µM.

Turning to `Cc1c(F)cc(C(=O)N[C@H]2CCCC[C@@H]2O)cc1Nc1cccc(-c2cccnc2)n1` [Example 81, 3-[([2,3′-bipyridin]-6-yl)amino]-5-fluoro-N-[(1S,2S)-2-hydroxycyclohexyl]-4-methylbenzamide], the IC50 in assay [1] was 0.14 µM; at PDGFR-β, 0.19 µM; in assay [2], 3.3 µM; in assay [3] (setting [4]), 0.11 µM.

Turning to `Cc1ccc(C(=O)N[C@@H](CO)[C@@H](O)c2ccccc2)cc1CNc1cncc(Br)c1` [Example 152, 3-{[(5-bromopyridin-3-yl)amino]methyl}-N-[(1S,2S)-1,3-dihydroxy-1-phenylpropan-2-yl]-4-methylbenzamide], the IC50 in assay [1] was 0.1 µM; at PDGFR-β, 0.05 µM; in assay [2], above 10 µM; in assay [3] (setting [4]), 0.082 µM.

For `Cc1ccc(C(=O)N[C@@H](CO)[C@@H](O)c2ccccc2)cc1Nc1ccnc(-c2cncc3ccccc23)n1` [Example 80, N-[(1S,2S)-1,3-dihydroxy-1-phenylpropan-2-yl]-3-{[2-(isoquinolin-4-yl)pyrimidin-4-yl]amino}-4-methylbenzamide], the IC50 in assay [1] is 0.08 µM; on PDGFR-β, 0.12 µM; in assay [2], above 10 µM; in assay [3] (setting [4]) it was 0.28 µM.

Take `Cc1ccc(C(=O)N[C@H]2CCCC[C@@H]2O)cc1NCc1cnc(N)nc1` [Example 113, 3-{[(2-aminopyrimidin-5-yl)methyl]amino}-N-[(1S,2S)-2-hydroxycyclohexyl]-4-methylbenzamide]: the IC50 in assay [1] is 0.0002 µM; at PDGFR-β, 0.083 µM; in assay [2], 0.7 µM; in assay [3] (setting [4]), 0.051 µM.

As to `Cc1ccc(C(=O)N[C@H]2CCCC[C@@H]2O)cc1NC(=O)c1cncc(-c2ccc(C(F)(F)F)cc2F)c1` [Example 36, 5-[2-fluoro-4-(trifluoromethyl)phenyl]-N-(5-{[(1S,2S)-2-hydroxycyclohexyl]carbamoyl}-2-methylphenyl)pyridine-3-carboxamide], the IC50 in assay [1] stood at 0.025 µM; at PDGFR-β, 0.13 µM; in assay [2], 3.5 µM; in assay [3] (setting [4]) it was 0.092 µM.

`Cc1ccc(C(=O)N[C@H]2CCCC[C@@H]2O)cc1COc1cncc(-c2cccnc2)c1` [Example 168, 3-{[([3,3′-bipyridin]-5-yl)oxy]methyl}-N-[(1S,2S)-2-hydroxycyclohexyl]-4-methylbenzamide]: the IC50 in assay [1] was determined as 0.018 µM; at PDGFR-β it was 0.35 µM; in assay [2] it was 4.1 µM; in assay [3] (setting [4]), 0.11 µM.

Consider `Cc1ccc(C(=O)N[C@H]2CCCC[C@@H]2O)cc1NC(=O)c1cncc(N(C)C2CC2)c1` [Example 17, 5-[cyclopropyl(methyl)amino]-N-(5-{[(1S,2S)-2-hydroxycyclohexyl]carbamoyl}-2-methylphenyl)pyridine-3-carboxamide], for which the IC50 in assay [1] turned out to be 0.01 µM; at PDGFR-β, 0.042 µM; in assay [2], 0.8 µM; in assay [3] (setting [5]), 0.13 µM.

On to `Cc1ccc(C(=O)N[C@H]2CCCC[C@@H]2O)cc1NC(=O)c1cncc(-c2cccc(F)c2)c1` [Example 20, 5-(3-fluorophenyl)-N-(5-{[(1S,2S)-2-hydroxycyclohexyl]carbamoyl}-2-methylphenyl)pyridine-3-carboxamide], for which the IC50 in assay [1] amounted to 0.024 µM; at PDGFR-β, 0.013 µM; in assay [2], 0.9 µM; in assay [3] (setting [5]), 0.077 µM.

Turning to `O=C(N[C@H]1CCCC[C@@H]1O)c1ccc(Cl)c(C#Cc2cncc(-c3ccccc3)c2)c1` [Example 58, 4-chloro-N-[(1S,2S)-2-hydroxycyclohexyl]-3-[(5-phenylpyridin-3-yl)ethynyl]benzamide], the IC50 amounted to 0.11 µM in assay [1], 0.012 µM on PDGFR-β, 1.8 µM in assay [2] and 0.057 µM in assay [3] (setting [4]).

As to `Cc1ccc(C(=O)N[C@H]2CCCC[C@@H]2O)cc1NC(=O)c1cnc(NC2CC2)s1` [Example 1, 2-(cyclopropylamino)-N-(5-{[(1S,2S)-2-hydroxycyclohexyl]carbamoyl}-2-methylphenyl)-1,3-thiazole-5-carboxamide], the IC50 in assay [1] is 0.017 µM; on PDGFR-β, 0.0059 µM; in assay [2] it was 0.48 µM; in assay [3] (setting [5]) it was 0.11 µM.

With `Cc1ccc(C(=O)N[C@H]2CCCC[C@@H]2O)cc1NC(=O)c1cnc(NC(C)(C)C)s1` [Example 38, 2-(tert-butylamino)-N-(5-{[(1S,2S)-2-hydroxycyclohexyl]carbamoyl}-2-methylphenyl)-1,3-thiazole-5-carboxamide], the IC50 in assay [1] was determined as 0.0073 µM; at PDGFR-β, 0.079 µM; in assay [2], 1.2 µM; in assay [3] (setting [4]), 0.21 µM.

`Cc1ccc(C(=O)N[C@H]2CCCC[C@@H]2O)cc1NC(=O)c1cncc(/C=C/C2CC2)c1` [Example 15, 5-[(E)-2-cyclopropylethenyl]-N-(5-{[(1S,2S)-2-hydroxycyclohexyl]carbamoyl}-2-methylphenyl)pyridine-3-carboxamide]: the IC50 in assay [1] is 0.0039 µM; on PDGFR-β it was 0.011 µM; in assay [2] it was 0.33 µM; in assay [3] (setting [5]) it was 0.018 µM.

Consider `Cc1ccc(NC(=O)N[C@@H]2CCCC[C@@H]2O)cc1CNc1cncc(-c2ncccn2)c1` [Example 162, N-[(1R,2S)-2-hydroxycyclohexyl]-N′-[4-methyl-3-({[5-(pyrimidin-2-yl)pyridin-3-yl]amino}methyl)phenyl]urea], for which the IC50 in assay [1] stood at 0.0011 µM; at PDGFR-β it was 0.0026 µM; in assay [2], 0.27 µM; in assay [3] (setting [4]) it was 0.036 µM.
